What was measured:
Format in all cases: biochemical
Src enzyme = target: T1, Src enzyme (Homo sapiens, UniProt P12931); test: Src enzyme activity, IMAP fluorescence polarization assay; details: 60 min pre-incubation, 4 μM ATP (Km)
T1 construct: purchased Millipore 14-326
Procedure: Src enzyme activity is measured using the IMAP (immobilized metal ion affinity-based fluorescence polarization) assay as outlined below.
Src enzyme (Millipore catalog#14-326), is diluted to 0.8 U/mL in KR buffer (10 mM Tris-HCl, 10 mM MgCl2, 0.01% Tween-20, 0.05% NaN3, 1 mM DTT, 2 mM MnCl2, pH 7.2).
Serial dilution log 10 from 2 mM to 63.2 nM of test compounds are made in 100% DMSO. The dilutions in DMSO are then diluted 50-fold in KR-buffer of which 5 μl is used in the assay, leading to a final compound concentration range in the assay from 10 μM to 0.316 nM. 5 μL/well of test compound in KR buffer (final DMSO concentration in the assay is 1%) is mixed with 5 μl/well of 0.8 U/mL Src enzyme (final concentration in the assay is 0.2 U/mL). Test compounds and Src enzyme are pre-incubated 60 minutes at room temperature, before adding 5 μL/well of 400 nM Fluorescin labeled substrate peptide (p34cdc2 substrate peptide, e.g. #R7157/#R7172, Molecular Devices) in KR-buffer. Final peptide substrate concentration in assay is 100 nM. The kinase assay is started by adding 5 μL/well of 16 μM ATP in KR-buffer (final ATP concentration is 4 μM ATP, Km ATP in Src IMAP assay). Following incubation for 2 h at room temperature the enzyme reaction is stopped by adding 40 μL/well IMAP Progressive Binding Solution (according to suppliers (Molecular Devices) protocol using 75% 1× buffer A and 25% 1× buffer B with 1:600 Progressive Binding Solution). After 60 min incubation at room temperature in the dark the FP signal is read. Fluorescence at 535 nm is measured using parallel and perpendicular filters to determine differences in rotation due to binding of the phosphorylated substrate peptide to the beads. Values are calculated as percentage of the difference in readout (ΔmPi) of the controls with and without ATP. EC50 values are determined by curve fitting of the experimental results using Activity Base.

Lck enzyme = target: T2, Lck enzyme (Homo sapiens, UniProt P06239); test: Lck enzyme activity, IMAP fluorescence polarization assay; details: 60 min pre-incubation, 6 μM ATP (Km)
T2 construct: purchased Millipore 14-442
Procedure: Lck enzyme activity is measured using the IMAP (immobilized metal ion affinity-based fluorescence polarization) assay as outlined below.
Lck enzyme (Millipore catalog#14-442), is diluted to 0.4 U/mL in KR buffer (10 mM Tris-HCl, 10 mM MgCl2, 0.01% Tween-20, 0.05% NaN3, 1 mM DTT, 2 mM MnCl2, pH 7.2). Serial dilution log 10 from 2 mM to 63.2 nM of test compounds are made in 100% DMSO. The dilutions in DMSO are then diluted 50-fold in KR-buffer of which 5 μl is used in the assay, leading to a final compound concentration range in the assay from 10 μM to 0.316 nM. 5 μL/well of test compound in KR buffer (final DMSO concentration in the assay is 1%) is mixed with 5 μl/well of 0.4 U/mL Lck enzyme (final concentration in the assay is 0.1 U/mL). Test compounds and Lck enzyme are pre-incubated 60 minutes at room temperature, before adding 5 μL/well of 400 nM Fluorescin labeled substrate peptide (p34cdc2 substrate peptide, e.g. #R7157/#R7172, Molecular Devices) in KR-buffer. Final peptide substrate concentration in assay is 100 nM. The kinase assay is started by adding 5 μL/well of 24 μM ATP in KR-buffer (final ATP concentration is 6 μM ATP, Km ATP in Lck IMAP assay). Following incubation for 2 h at room temperature the enzyme reaction is stopped by adding 40 μL/well IMAP Progressive Binding Solution (according to suppliers (Molecular Devices) protocol using 75% 1× buffer A and 25% 1× buffer B with 1:600 Progressive Binding Solution). After 60 min incubation at room temperature in the dark the FP signal is read. Fluorescence at 535 nm is measured using parallel and perpendicular filters to determine differences in rotation due to binding of the phosphorylated substrate peptide to the beads. Values are calculated as percentage of the difference in readout (ΔmPi) of the controls with and without ATP. EC50 values are determined by curve fitting of the experimental results using Activity Base.

Lyn enzyme = target: T3, Lyn enzyme (Homo sapiens, UniProt P07948); test: Lyn enzyme activity, IMAP fluorescence polarization assay; details: 60 min pre-incubation, 2 μM ATP (Km)
T3 construct: purchased Millipore 14-510
Procedure: Lyn enzyme activity is measured using the IMAP (immobilized metal ion affinity-based fluorescence polarization) assay as outlined below.
Lyn enzyme (Millipore catalog#14-510), is diluted to 250 mU/mL in KR buffer (10 mM Tris-HCl, 10 mM MgCl2, 0.01% Tween-20, 0.05% NaN3, 1 mM DTT, 2 mM MnCl2, pH 7.2). Serial dilution log 10 from 2 mM to 63.2 nM of test compounds are made in 100% DMSO. The dilutions in DMSO are then diluted 50-fold in KR-buffer of which 5 μl is used in the assay, leading to a final compound concentration range in the assay from 10 μM to 0.316 nM. 5 μL/well of test compound in KR buffer (final DMSO concentration in the assay is 1%) is mixed with 5 μl/well of 250 mU/mL Lyn enzyme (final concentration in the assay is 62.5 mU/mL). Test compounds and Lyn enzyme are pre-incubated 60 minutes at room temperature, before adding 5 μL/well of 400 nM Fluorescin labeled substrate peptide (Blk/Lyntide substrate, e.g. #R7188/#R7233, Molecular Devices) in KR-buffer. Final peptide substrate concentration in assay is 100 nM. The kinase assay is started by adding 5 μL/well of 8 μM ATP in KR-buffer (final ATP concentration is 2 μM ATP, Km ATP in Lyn IMAP assay). Following incubation for 2 h at room temperature the enzyme reaction is stopped by adding 40 μL/well IMAP Progressive Binding Solution (according to suppliers (Molecular Devices) protocol using 75% 1× buffer A and 25% 1× buffer B with 1:600 Progressive Binding Solution). After 60 min incubation at room temperature in the dark the FP signal is read. Fluorescence at 535 nm is measured using parallel and perpendicular filters to determine differences in rotation due to binding of the phosphorylated substrate peptide to the beads. Values are calculated as percentage of the difference in readout (ΔmPi) of the controls with and without ATP. EC50 values are determined by curve fitting of the experimental results using Activity Base.

FynT enzyme = target: T4, FynT enzyme (Homo sapiens, UniProt P06241); test: FynT enzyme activity, IMAP fluorescence polarization assay; details: 60 min pre-incubation, 0.2 μM ATP (Km)
T4 construct: purchased Biomol SE-287
Procedure: FynT enzyme activity is measured using the IMAP (immobilized metal ion affinity-based fluorescence polarization) assay as outlined below.
FynT enzyme (Biomol catalog# SE-287), is diluted to 0.5 μg/mL in KR buffer (10 mM Tris-HCl, 10 mM MgCl2, 0.01% Tween-20, 0.05% NaN3, 1 mM DTT, 2 mM MnCl2, pH 7.2). Serial dilution log 10 from 2 mM to 63.2 nM of test compounds are made in 100% DMSO. The dilutions in DMSO are then diluted 50-fold in KR-buffer of which 5 μl is used in the assay, leading to a final compound concentration range in the assay from 10 μM to 0.316 nM. 5 μL/well of test compound in KR buffer (final DMSO concentration in the assay is 1%) is mixed with 5 μl/well of 0.5 μg/mL FynT enzyme (final concentration in the assay is 125 ng/mL). Test compounds and FynT enzyme are pre-incubated 60 minutes at room temperature, before adding 5 μL/well of 400 nM Fluorescin labeled substrate peptide (p34cdc2 substrate peptide, e.g. #R7157/#R7172, Molecular Devices) in KR-buffer. Final peptide substrate concentration in assay is 100 nM. The kinase assay is started by adding 5 μL/well of 0.8 μM ATP in KR-buffer (final ATP concentration is 0.2 μM ATP, Km ATP in FynT IMAP assay). Following incubation for 2 h at room temperature the enzyme reaction is stopped by adding 40 μL/well IMAP Progressive Binding Solution (according to suppliers (Molecular Devices) protocol using 75% 1× buffer A and 25% 1× buffer B with 1:600 Progressive Binding Solution). After 60 min incubation at room temperature in the dark the FP signal is read. Fluorescence at 535 nm is measured using parallel and perpendicular filters to determine differences in rotation due to binding of the phosphorylated substrate peptide to the beads. Values are calculated as percentage of the difference in readout (ΔmPi) of the controls with and without ATP. EC50 values are determined by curve fitting of the experimental results using Activity Base.

Measured: EC50

T1 sequence (P12931 whole entry): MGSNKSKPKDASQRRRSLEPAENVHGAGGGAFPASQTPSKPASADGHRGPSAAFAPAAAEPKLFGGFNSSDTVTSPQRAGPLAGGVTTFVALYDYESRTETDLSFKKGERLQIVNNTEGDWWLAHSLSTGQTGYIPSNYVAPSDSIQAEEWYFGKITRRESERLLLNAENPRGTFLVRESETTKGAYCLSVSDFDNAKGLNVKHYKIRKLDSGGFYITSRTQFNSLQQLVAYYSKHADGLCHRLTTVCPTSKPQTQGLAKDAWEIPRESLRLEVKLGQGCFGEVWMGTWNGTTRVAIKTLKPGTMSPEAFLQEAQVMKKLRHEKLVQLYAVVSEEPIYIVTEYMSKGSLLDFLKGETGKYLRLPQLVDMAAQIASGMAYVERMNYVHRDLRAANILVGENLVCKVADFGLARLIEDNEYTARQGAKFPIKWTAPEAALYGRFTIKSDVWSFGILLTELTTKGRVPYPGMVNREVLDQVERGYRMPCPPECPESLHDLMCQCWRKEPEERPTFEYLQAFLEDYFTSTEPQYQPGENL
T2 sequence (P06239 whole entry): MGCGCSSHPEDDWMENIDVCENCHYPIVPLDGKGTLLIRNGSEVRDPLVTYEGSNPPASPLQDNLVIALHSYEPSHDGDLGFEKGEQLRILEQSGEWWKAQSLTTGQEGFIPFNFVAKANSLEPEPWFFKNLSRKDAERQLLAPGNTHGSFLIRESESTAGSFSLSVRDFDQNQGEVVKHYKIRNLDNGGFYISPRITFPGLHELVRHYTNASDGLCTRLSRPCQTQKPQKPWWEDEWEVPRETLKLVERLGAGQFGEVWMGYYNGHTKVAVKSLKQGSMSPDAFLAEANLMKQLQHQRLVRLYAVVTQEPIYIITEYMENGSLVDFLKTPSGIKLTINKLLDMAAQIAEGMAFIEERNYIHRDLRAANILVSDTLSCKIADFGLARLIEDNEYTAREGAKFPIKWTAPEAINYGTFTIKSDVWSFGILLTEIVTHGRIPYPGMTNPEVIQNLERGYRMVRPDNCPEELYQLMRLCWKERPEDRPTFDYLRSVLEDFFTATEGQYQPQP
T3 sequence (P07948 whole entry): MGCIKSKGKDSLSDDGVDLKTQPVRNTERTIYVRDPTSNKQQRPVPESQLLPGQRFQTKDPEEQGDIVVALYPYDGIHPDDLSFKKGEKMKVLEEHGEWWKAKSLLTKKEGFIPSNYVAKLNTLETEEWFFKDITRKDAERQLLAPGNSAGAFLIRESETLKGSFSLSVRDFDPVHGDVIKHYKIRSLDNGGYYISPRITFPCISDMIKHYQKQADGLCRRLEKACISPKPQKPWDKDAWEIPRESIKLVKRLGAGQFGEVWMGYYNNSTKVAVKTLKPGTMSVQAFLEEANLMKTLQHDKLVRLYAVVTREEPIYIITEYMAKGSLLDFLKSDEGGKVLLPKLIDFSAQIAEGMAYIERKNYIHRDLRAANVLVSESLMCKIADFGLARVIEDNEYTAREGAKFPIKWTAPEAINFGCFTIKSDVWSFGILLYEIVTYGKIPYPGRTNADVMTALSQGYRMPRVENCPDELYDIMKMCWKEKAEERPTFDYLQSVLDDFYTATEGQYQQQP
T4 sequence (P06241 1-534 isoform P06241-2): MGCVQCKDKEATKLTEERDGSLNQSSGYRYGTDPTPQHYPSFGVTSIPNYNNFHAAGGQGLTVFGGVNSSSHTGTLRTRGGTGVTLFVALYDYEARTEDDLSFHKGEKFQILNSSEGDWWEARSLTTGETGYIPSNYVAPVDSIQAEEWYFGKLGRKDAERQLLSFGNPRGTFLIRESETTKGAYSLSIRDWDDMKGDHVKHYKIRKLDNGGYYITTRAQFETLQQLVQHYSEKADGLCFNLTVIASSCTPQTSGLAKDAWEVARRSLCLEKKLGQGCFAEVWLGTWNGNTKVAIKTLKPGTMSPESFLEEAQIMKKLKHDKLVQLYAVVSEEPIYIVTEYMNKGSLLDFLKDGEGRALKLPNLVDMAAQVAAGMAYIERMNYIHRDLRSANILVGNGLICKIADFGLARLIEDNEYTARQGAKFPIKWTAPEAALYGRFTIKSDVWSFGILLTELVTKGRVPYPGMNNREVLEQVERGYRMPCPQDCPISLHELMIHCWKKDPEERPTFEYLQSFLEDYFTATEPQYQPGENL

CCCc1ccnc(NC(=O)c2ccc(-c3nc([C@H](C)N(C)C(=O)/C=C/COC)n4ccnc(C)c34)cc2)c1 [Example 39, (S,E)-4-(3-(1-(4-methoxy-N-methylbut-2-enamido)ethyl)-8-methylimidazo[1,5-a]pyrazin-1-yl)-N-(4-propylpyridin-2-yl)benzamide]
≥ 1000 nM: all assays above

CC#CC(=O)N1CCC[C@H]1c1nc(-c2ccc(C(=O)Nc3cc(OC)ccn3)cc2)c2c(C)nccn12 [Example 16, (S)-4-(3-(1-but-2-ynoylpyrrolidin-2-yl)-8-methylimidazo[1,5-a]pyrazin-1-yl)-N-(4-methoxypyridin-2-yl)benzamide]
≥ 1000 nM: all assays above

CC#CC(=O)N1CCC[C@H]1c1nc(-c2ccc(C(=O)Nc3cc(C(F)(F)F)ccn3)cc2)c2c(C)nccn12 [Example 26, (S)-4-(3-(1-but-2-ynoylpyrrolidin-2-yl)-8-methylimidazo[1,5-a]pyrazin-1-yl)-N-(4-(trifluoromethyl)pyridin-2-yl)benzamide]
≥ 1000 nM: all assays above

CC#CC(=O)N1CCC[C@H]1c1nc(-c2ccc(C(=O)Nc3cc(CC)ccn3)cc2)c2c(C)nccn12 [Example 20, (S)-4-(3-(1-but-2-ynoylpyrrolidin-2-yl)-8-methylimidazo[1,5-a]pyrazin-1-yl)-N-(4-ethylpyridin-2-yl)benzamide]
≥ 1000 nM: all assays above

COC/C=C/C(=O)N1CCCC[C@H]1c1nc(-c2ccc(C(=O)Nc3cc(C(F)(F)F)ccn3)cc2)c2c(C)nccn12 [Example 30, (S,E)-4-(3-(1-(4-methoxybut-2-enoyl)piperidin-2-yl)-8-methylimidazo[1,5-a]pyrazin-1-yl)-N-(4-(trifluoromethyl)pyridin-2-yl)benzamide]
≥ 1000 nM: all assays above

Source: patent US20140155406A1, “4-IMIDAZOPYRIDAZIN-1-YL-BENZAMIDES AND 4-IMIDAZOTRIAZIN-1-YL-BENZAMIDES BTK INHIBITORS” (priority 2011, published 2014)
